Assay results from patent US6641840B2, “Sustained release formulations for growth hormone secretagogues” (Pfizer Inc., priority 2000, dated 2003).

Experiments:
[1] = One compartment pharmacokinetic model fitted to observed human plasma concentrations
Text: A one compartment pharmacokinetic model was constructed using the following equations (I Think, Stella, HPS, Hanover, N.H.): […]
where ba is bioavailability (1.0), Vdist_liter is volume of distribution in units of liters (0.75), ka_hr1 is absorption rate constant in units of reciprocal hr (1.3), and thalf_hr is the plasma concentration vs. time elimination half-life in units of hr (2.5).
These parameters were then fixed to the values noted above for all subsequent simulations.

[2] = test system: IGF-I; test: Simulated sustained release study (bolus vs divided oral solution): serum IGF-I; format: in vivo, human; conditions: simulated sustained release dosing compared to bolus
Method: This dosing regimen simulates active compound delivery by a sustained release dosage form. […] Serum concentrations of growth hormone were monitored just prior to administration of the first dose and every 20 minutes thereafter for 24 hours. Serum […] growth factor-I (IGF-I) concentrations were measured at 0, 12, and 24 hours post-first dose.
The order of treatment was defined by a randomization schedule. Following initial administration, subjects were readmitted to the clinical research facility approximately 14 days later. During the second evaluation, the subject received the treatment not used during the previous session.
IGF-I serum concentrations were determined following administration of the bolus or divided doses. […]
IGF-I quantitation of the human serum samples was conducted using the “DSL-5600A Active™ IGF-I Coated-Tube IRMA (immunoradiometric assay) by Extraction” Kit (Diagnostic Systems Laboratories Inc., Webster, Tex.). […] Lyophilized calibration and validation samples were prepared by the addition of 1 mL of water to the ready-to-use samples. […] This neutralized human serum extract was ready for use in the actual IRMA after having vortexed it briefly. […] The remaining [^125I]radioactivity of all tubes was determined by counting for five minutes using a Canberra-Packard Cobra II™ 5002 ã-counter (Canberra-Packard, Schwadorf, Austria).

[3] = test system: growth hormone; test: Clinical extension study: growth hormone secretion profile (GH peaks); format: in vivo, human
Method: In addition, an extension study was conducted to evaluate the relationship between peak GH concentrations or IGF-I versus surrogate responses such as lipid concentrations and body composition. A sustained release (SR) formulation was also evaluated, either alone or combined with an immediate release (IR) formulation (24-30 patients per group). [16 mg (10 SR, 6 IR) h.s. (h.s. means at bedtime); 16 mg (10 SR, 6 IR) h.s. every third day; 16 mg SR h.s.; and placebo.] The formulations are set forth below.
In addition to this schedule, subjects at selected sites in the extension study were studied during two overnight admissions on the first night of dosing and again on day 28 of dosing. Growth hormone secretion and pharmacokinetic sampling was carried out.
A follow-up evaluation was made at 1, 2, and 4 weeks. Vital signs were obtained and the skin of the face, trunk and upper extremities was inspected.
In addition, subjects at selected study centers were admitted to an overnight unit on day 28 of dosing. Growth hormone secretion profile, pharmacokinetics, and vital sign determination were carried out.

[4] = fitted one compartment model, humans

CN1N=C2CCN(C(=O)[C@@H](COCc3ccccc3)NC(=O)C(C)(C)N)C[C@@]2(Cc2ccccc2)C1=O.O=C(O)C(O)C(O)C(=O)O [Compound A]
absorption rate constant (ka_hr1) [1, 4]: 1.3 reciprocal hr
plasma concentration vs. time elimination half-life (thalf_hr) [1, 4]: 2.5 h
volume of distribution (Vdist_liter) [1, 4]: 0.75 L
bioavailability (ba) ([1]; fitted to observed plasma concentrations after oral 10, 3 and 0.3 mg doses to humans): 1.0
IGF-I serum concentration change from baseline at 24 hours [2]: increased
GH peak heights, Q 3 day group greater than QD group ([3]; 16 mg (10 SR, 6 IR) every third day vs daily): 1.52 ng/mL
GH peaks, average ([3]; group receiving SR alone (16 mg SR h.s.), after 4 weeks): 2 ng/mL
GH peaks, average ([3]; group receiving SR alone (16 mg SR h.s.), at baseline): less than 4 ng/ml
GH peaks, average ([3]; groups receiving 6 mg IR (with 10 mg SR), at baseline): ≥ 15 ng/mL
GH peaks, average ([3]; groups receiving 6 mg IR (with 10 mg SR), by 4 weeks): 4 to 6 ng/mL
